One series concerns MCF-7 cells. Briefly: Test 1: growth inhibition of MCF-7 human breast cancer cells. The class given is cell-based. Particulars: Homo sapiens, MCF7, 72 hours culture with sample, read-out: GI50 (50% growth inhibition concentration). As to the method:
Used in the test were MCF-7 cells which were established from human breast cancer and were cultured routinely under the conditions of 37° C. and 5% CO2, in MEM medium supplemented with 10% fetal calf serum, 25 mM of HEPES and 0.1 mg/ml of kanamycin. The MCF-7 cells in a logarithmic growth phase were treated with trypsin/EDTA to prepare single cell suspension adjusted to 4.0×10^4 cells/ml in MEM medium (supplemented with 10% fetal calf serum, 25 mM of HEPES and 0.1 mg/ml of kanamycin). Test compounds were dissolved in DMSO and diluted with RPMI 1640 medium (supplemented with 10% fetal calf serum, 25 mM of HEPES and 0.1 mg/ml of kanamycin) to a concentration of 2.0×10^−4-2.0×10^−9 M.
The cell suspension was filled in a 96-wells microplate at a rate of 0.1 ml per well and was cultured for 24 hours so as to make the cells adhered to the microplate. Then, it was added with 0.1 ml of the sample solution and cultured at 37° C. for 72 hours in 5% CO2.
50% Growth inhibition concentrations (GI50 μM) were calculated from growth inhibitions at various sample concentrations.

The subject of the next series is Human colon cancer WiDr. As to the kind of experiment: Test 2: human colon cancer WiDr subcutaneous tumor in nude mice. Particulars: intraperitoneally 200 mg/kg, once a day, six times a week, for two weeks. Type of series: in vivo, mutant BALA/c nude mice. On the procedure:
Human colon cancer WiDr was grown as subcutaneous tumor in mutant BALA/c nude mice. 2-mm-cube tumor fragments were transplanted subcutaneously into left flank of the nude mice. When the tumor reached logarithmic growth phase, mice were divided randomly into test groups consisting five mice per group. The samples prepared by dissolving test compounds in physiological saline solution or suspending them in 1% hydroxypropyl cellulose (HPC), using an agate mortar, were intraperitoneally administered at a rate of 200 mg/kg, once a day and six times a week in total, for two weeks. Major and minor axes of the tumor mass were measured on a daily basis to calculate tumor volume. The tumor volume at each measured day was divided by that at the start day of the sample administration to calculate relative tumor growth rate; and the relative tumor growth rate of the treated groups (T) and that of the control group (C) were used to calculate T/C (%).

As a reminder, the melting point is the temperature of the solid-liquid transition. Consider `C[C@@H]1OCCN(c2nc(N3CCOCC3)nc(-n3c(C(F)F)nc4ccccc43)n2)[C@H]1C` (relative stereo) [compound 14, 2-(2-difluoromethylbenzimidazol-1-yl)-4-(trans-2,3-dimethylmorpholino)-6-morpholino-1,3,5-triazine], for which the melting point was 135 to 138 °C. Further, the GI50 in the series on MCF-7 cells was 160 nM. Also, the “judgment (T/C (%) of relative tumor growth rate, last day)” value in the series with Human colon cancer WiDr was “+ (Cases where T/C (%) of the last day was less than 50% and U-assay of Mann-Whitney revealed significant difference with one-sided risk rate of 1% were judged to be effective (+))”.

With `CC(=O)Nc1nc2ccccc2n1-c1nc(N2CCOCC2)nc(N2CCOCC2)n1` [compound 22, 2-(2-acetylaminobenzimidazol-1-yl)-4,6-dimorpholino-1,3,5-triazine], the melting point is 243 to 245 °C. The GI50 in the series with MCF-7 cells worked out at 230 nM. Also, in the series with Human colon cancer WiDr, the “judgment (T/C (%) of relative tumor growth rate, last day)” value is “+ (Cases where T/C (%) of the last day was less than 50% and U-assay of Mann-Whitney revealed significant difference with one-sided risk rate of 1% were judged to be effective (+))”.

For the compound `CC1(C)CN(c2nc(N3CCOCC3)nc(-n3c(C(F)F)nc4ccc(N)cc43)n2)CCO1` [compound 32, 2-(6-amino-2-difluoromethylbenzimidazol-1-yl)-4-(2,2-dimethylmorpholino)-6-morpholino-1,3,5-triazine], the melting point is 226 to 227 °C (dec.). Moreover, in the series on MCF-7 cells, the GI50 was determined as 180 nM. The “judgment (T/C (%) of relative tumor growth rate, last day)” value in the series with Human colon cancer WiDr was “+ (Cases where T/C (%) of the last day was less than 50% and U-assay of Mann-Whitney revealed significant difference with one-sided risk rate of 1% were judged to be effective (+))”.

On to `C[C@@H]1OCCN(c2cc(N3CCOCC3)nc(-n3c(C(F)F)nc4ccc(N)cc43)n2)[C@@H]1C` (relative stereo) [compound 36, 2-(6-amino-2-difluoromethylbenzimidazol-1-yl)-4-(2,3-cis-dimethylmorpholino)-6-morpholinopyrimidine], for which the melting point was 155 to 158 °C (dec.). Besides, the GI50 with MCF-7 cells turned out to be 290 nM.

In turn, `C[C@@H]1OCCN(c2cc(N3CCCCC3)nc(-n3c(CO)nc4ccccc43)n2)[C@@H]1C` (relative stereo) [compound 11, 4-(cis-2,3-dimethylmorpholino)-2-(2-hydroxymethylbenzimidazol-1-yl)-6-piperidinopyrimidine] yielded a melting point of 141 to 143 °C. Further, in the series with MCF-7 cells, the GI50 stood at 200 nM.

As to `C[C@@H]1OCCN(c2nc(N3CCOCC3)nc(-n3c(C(F)F)nc4ccc(N)cc43)n2)[C@@H]1C` (relative stereo) [compound 33, 2-(6-amino-2-difluoromethylbenzimidazol-1-yl)-4-(2,3-cis-dimethylmorpholino)-6-morpholino-1,3,5-triazine], the melting point is 220 to 222 °C (dec.). The GI50 in the series with MCF-7 cells was found to be 80 nM. Also, the “judgment (T/C (%) of relative tumor growth rate, last day)” value in the series with Human colon cancer WiDr was “+ (Cases where T/C (%) of the last day was less than 50% and U-assay of Mann-Whitney revealed significant difference with one-sided risk rate of 1% were judged to be effective (+))”.

For the compound `Nc1cccc2c1nc(C(F)F)n2-c1nc(N2CCOCC2)nc(N2CCOCC2)n1` [compound 34, 2-(4-amino-2-difluoromethylbenzimidazol-1-yl)-4,6-dimorpholino-1,3,5-triazine], the melting point is 214 to 216 °C (dec.). Besides, the GI50 in the series with MCF-7 cells amounted to 80 nM.

`C[C@@H]1OCCN(c2cc(N3CCOCC3)nc(-n3c(N)nc4ccccc43)n2)[C@H]1C.Cl` (relative stereo) [compound 31, 2-(2-aminobenzimidazol-1-yl)-4-(trans-2,3-dimethylmorpholino)-6-morpholinopyrimidine hydrochloride] yielded a melting point of 141 to 145 °C. Besides, the GI50 with MCF-7 cells turned out to be 240 nM. Moreover, the “judgment (T/C (%) of relative tumor growth rate, last day)” value in the series with Human colon cancer WiDr is “+ (Cases where T/C (%) of the last day was less than 50% and U-assay of Mann-Whitney revealed significant difference with one-sided risk rate of 1% were judged to be effective (+))”.

On to `CC1CN(c2nc(N3CCOCC3)nc(-n3c(C(F)F)nc4ccccc43)n2)CCO1` (stereo not drawn) [compound 17, 2-(2-difluoromethylbenzimidazol-1-yl)-4-(2-methylmorpholino)-6-morpholino-1,3,5-triazine], for which the melting point lay within 188 to 191 °C. The GI50 with MCF-7 cells is 120 nM.

With `COC(=O)Nc1nc2ccccc2n1-c1nc(N2CCOCC2)nc(N2CCOCC2)n1` [compound 29, 2-(2-methoxycarbonylaminobenzimidazol-1-yl)-4,6-dimorpholino-1,3,5-triazine], the melting point lay within 206 to 209 °C. The GI50 in the series with MCF-7 cells worked out at 250 nM.

On to `FC(F)c1nc2ccccc2n1-c1nc(N2CCOCC2)nc(N2CCOCC2)n1` [compound 19, 2-(2-difluoromethylbenzimidazol-1-yl)-4,6-dimorpholino-1,3,5-triazine], for which the GI50 in the series on MCF-7 cells was 90 nM. Further, the “judgment (T/C (%) of relative tumor growth rate, last day)” value in the series with Human colon cancer WiDr was “+ (Cases where T/C (%) of the last day was less than 50% and U-assay of Mann-Whitney revealed significant difference with one-sided risk rate of 1% were judged to be effective (+))”.

Take `FC(F)c1nc2ccccc2n1-c1nc(N2CCOCC2)cc(N2CCOCC2)n1` [compound 2, 2-(2-difluoromethylbenzimidazol-1-yl)-4,6-dimorpholinopyrimidine]: the melting point was 201 to 202 °C. Further, the GI50 in the series with MCF-7 cells worked out at 210 nM.

As to `CC1(C)OCCN1c1nc(N2CCOCC2)nc(-n2c(C(F)F)nc3cc(O)ccc32)n1` [compound 39, 2-(2-difluoromethyl-5-hydroxybenzimidazol-1-yl)-4-(2,2-dimethyloxazolidin-3-yl)-6-morpholino-1,3,5-triazine], the melting point is 239 to 243 °C (dec.). Also, the GI50 with MCF-7 cells came to 60 nM.

Regarding `Nc1ccc2nc(C(F)F)n(-c3nc(N4CCOCC4)cc(N4CCOCC4)n3)c2c1` [compound 35, 2-(6-amino-2-difluoromethylbenzimidazol-1-yl)-4,6-dimorpholinopyrimidine], the melting point is 218 to 219 °C (dec.). For the same compound, the GI50 with MCF-7 cells worked out at 140 nM.
